Read-outs that look alike come from different tables or passages of the source. Where a SMILES comes first, the peptide text is derived from it. Where no end group is shown, it is not given here. [ ]: non-standard residue; d: D form. Abu = CC[C@H](N)C(=O)O
How the values were obtained:
[1] = biological target: HLA-A*0101 (Homo sapiens, UniProt P04439, A114D/A174V/A182V/D101N/D185E/E176A/E190D/L180R/Q94H/R68K/S129P/T187R/V100A/V91M/W191G); format: binding; conditions: Table XXV, HLA-A1 motif-bearing peptides
[2] = test system: tumor targets that endogenously express HER2/neu (colon adenocarcinoma cell lines SW403 and HT-29); assay: Primary in vitro CTL induction, recognition of wild-type peptide and endogenous tumor targets (51Cr release / in situ IFNγ ELISA); format: cell-based, human; conditions: in vitro, expanded positive cultures
[3] = test system: .221A2.1 cell line, peptide-loaded target; assay: Primary in vitro CTL induction, peptide-specific recognition (51Cr release / in situ IFNγ ELISA); format: cell-based, human; conditions: normal donors, peptide-pulsed targets
Description: The colon adenocarcinoma cell lines SW403 and HT-29 were obtained from the American Type Culture Collection (ATCC) (Rockville, Md.). The cell lines that were obtained from ATCC were maintained under the culture conditions recommended by the supplier. […] The colon cancer cells were treated with 100U/ml IFNγ (Genzyme) for 48 hours at 37° C. before use as targets in the ^51Cr release and in situ IFNγ assays.
The monocytes were purified by plating 10×10^6 PBMC/well in a 6-well plate. After 2 hours at 37° C., the non-adherent cells were removed by gently shaking the plates and aspirating the supernatants. The wells were washed a total of three times with 3 ml RPMI to remove most of the non-adherent and loosely adherent cells. Three ml of complete medium containing 50 ng/ml of GM-CSF and 1,000 U/ml of IL-4 were then added to each well. DC were used for CTL induction cultures following 7 days of culture.
Induction of CTL with DC and Peptide: CD8+ T-cells were isolated by positive selection with Dynal immunomagnetic beads (Dynabeads® M-450) and the detacha-bead® reagent. Typically about 200-250×10^6 PBMC were processed to obtain 24×10^6 CD8^+ T-cells (enough for a 48-well plate culture). Briefly, the PBMCs were thawed in RPMI with 30 μg/ml DNAse, washed once with PBS containing 1% human AB serum and resuspended in PBS/1% AB serum at a concentration of 20×10^6cells/ml. The magnetic beads were washed 3 times with PBS/AB serum, added to the cells (140 μl beads/20×10^6 cells) and incubated for 1 hour at 4° C. with continuous mixing. The beads and cells were washed 4× with PBS/AB serum to remove the nonadherent cells and resuspended at 100×10^6 cells/ml (based on the original cell number) in PBS/AB serum containing 100 μl/ml detacha-bead® reagent and 30 μg/ml DNAse. The mixture is incubated for 1 hour at room temperature with continuous mixing. The beads were washed again with PBS/AB/DNAse to collect the CD8+ T-cells. The DC were collected and centrifuged at 1300 rpm for 5-7 minutes, washed once with PBS with 1% BSA, counted and pulsed with 40 μg/ml of peptide at a cell concentration of 1-2×10^6/ml in the presence of 3 μg/ml β2-microglobulin for 4 hours at 20° C. The DC were then irradiated (4,200 rads), washed 1 time with medium and counted again.
Setting up induction cultures: 0.25 ml cytokine-generated DC (@1×10^5 cells/ml) were co-cultured with 0.25 ml of CD8+ T-cells (@2×10^6 cell/ml) in each well of a 48-well plate in the presence of 10 ng/ml of IL-7. rHuman IL10 was added the next day at a final concentration of 10 ng/ml and rhuman IL2 was added 48 hours later at 10 IU/ml.
Restimulation of the induction cultures with peptide-pulsed adherent cells: Seven and fourteen days after the primary induction the cells were restimulated with peptide-pulsed adherent cells. The PBMCS were thawed and washed twice with RPMI and DNAse. The cells were resuspended at 5×10^6 cells/ml and irradiated at ˜4200 rads. The PBMCs were plated at 2×10^6 in 0.5 ml complete medium per well and incubated for 2 hours at 37° C. The plates were washed twice with RPMI by tapping the plate gently to remove the nonadherent cells and the adherent cells pulsed with 10 μg/ml of peptide in the presence of 3 μg/ml β2 microglobulin in 0.25 ml RPMI/5%AB per well for 2 hours at 37° C. Peptide solution from each well was aspirated and the wells were washed once with RPMI. Most of the media was aspirated from the induction cultures (CD8+ cells) and brought to 0.5 ml with fresh media. […]

[4] = biological target: HLA-A*0206 (Homo sapiens, UniProt P04439, D140Y/D185E/D98H/E176V/E277Q/F33Y/G131W/G231S/I119V/I121R/I166T/I218V/L300P/L318F/N151K/N90K/P208A/P217A/Q86G/Q94H/R138H/R169H/T345S); format: binding; conditions: Table XXII, A2 supermotif peptides and analogs
[5] = biological target: HLA-A*0203 (Homo sapiens, UniProt P04439, A173T/D140Y/D185E/D98H/E277Q/G131W/G231S/I119V/I121R/I166T/I218V/L180W/L300P/L318F/N151K/N90K/P208A/P217A/Q86G/Q94H/R138H/R169H/T345S); format: binding; conditions: Table XXII, A2 supermotif peptides and analogs
[6] = biological target: HLA-A*0201 (Homo sapiens, UniProt P04439, D140Y/D185E/D98H/E176V/E277Q/G131W/G231S/I119V/I121R/I166T/I218V/L300P/L318F/N151K/N90K/P208A/P217A/Q86G/Q94H/R138H/R169H/T345S); format: binding; conditions: Table XXII, A2 supermotif peptides and analogs
[7] = biological target: HLA-A*2402 (Homo sapiens, UniProt P04439, D101N/D140Y/D185E/E176V/E190D/F33S/G103R/G107R/I119L/I121M/I306V/K335N/L105A/L180Q/L300P/N151K/N90K/Q86E/Q94H/R106L/R138H/R89G/T104I/T345S/V100E/W191G/Y123F); format: binding; conditions: HLA-A24 motif-bearing peptides, Table XXVI
Description: The corresponding peptide sequence are then synthesized and tested for binding to the appropriate allele-specific HLA molecule, HLA-A1 or HLA-24.

Compound	recognition of wild-type peptide and of tumor targets endogenously expressing HER2/neu by induced CTL [2]	induction of peptide-specific CTL [3]	further results
CC(C)[C@H](NC(=O)[C@H](CS)NC(=O)[C@@H](NC(=O)[C@H](C)N)[C@@H](C)O)C(=O)N[C@H](C(=O)N[C@@H](C)C(=O)N[C@@H](CS)C(=O)N1CCC[C@H]1C(=O)N[C@@H](Cc1ccc(O)cc1)C(=O)O)[C@@H](C)O [Her2/neu.293.T2]	–	–	IC50 ([1]; read-out: A*[…]): 49 nM
CC(C)C[C@H](NC(=O)[C@H](CO)NC(=O)CNC(=O)[C@H](Cc1ccccc1)NC(=O)[C@H](CC(C)C)NC(=O)[C@@H](N)CCCCN)C(=O)N[C@@H](C)C(=O)N[C@@H](Cc1ccccc1)C(=O)N[C@H](C(=O)O)C(C)C [Her2/neu.369L2V9]	also recognized the target tumor cells	induced peptide-specific CTLs	–
CC(C)[C@H](NC(=O)[C@H](CS)NC(=O)[C@H](CCC(N)=O)NC(=O)[C@H](CC(=O)O)NC(=O)[C@H](C)NC(=O)[C@@H](N)CCC(=O)O)C(=O)N[C@@H](C)C(=O)N[C@@H](CS)C(=O)N[C@@H](C)C(=O)N[C@@H](Cc1c[nH]cn1)C(=O)N[C@@H](Cc1ccc(O)cc1)C(=O)O [Her2/neu.580]	–	–	IC50 [1]: 250 nM
CC[C@H](NC(=O)[C@H](CCCCN)NC(=O)[C@@H](NC(=O)[C@H](CCSC)NC(=O)[C@@H](NC(=O)[C@H](CC(C)C)NC(=O)[C@@H](N)Cc1ccc(O)cc1)[C@@H](C)CC)C(C)C)C(=O)N[C@@H](Cc1c[nH]c2ccccc12)C(=O)N[C@@H](CCSC)C(=O)N[C@H](C(=O)O)C(C)C [Her2/neu.952L2B7V10] (H-YLIMVK[Abu]WMV-OH)	no wild-type peptide or endogenous recognition was observed	induced peptide-specific CTLs in at least 2 donors	IC50 [4]: 11 nM; IC50 [5]: 77 nM; IC50 [6]: 7.2 nM
CC[C@H](NC(=O)[C@H](CC(C)C)NC(=O)[C@H](C)N)C(=O)N[C@@H](CCCNC(=N)N)C(=O)N[C@@H](Cc1c[nH]c2ccccc12)C(=O)NCC(=O)N[C@@H](CC(C)C)C(=O)N[C@@H](CC(C)C)C(=O)N[C@H](C(=O)O)C(C)C [Her2neu.5B3V9] (H-AL[Abu]RWGLLV-OH)	no wild-type peptide or endogenous recognition was observed	induced peptide-specific CTLs in at least 2 donors	IC50 [6]: 18 nM
CC(C)C[C@H](NC(=O)[C@H](CO)NC(=O)CNC(=O)[C@H](Cc1ccccc1)NC(=O)[C@@H](NC(=O)[C@@H](N)CCCCN)C(C)C)C(=O)N[C@@H](C)C(=O)N[C@@H](Cc1ccccc1)C(=O)N[C@H](C(=O)O)C(C)C [Position V2V9]	also recognized the target tumor cells	induced peptide-specific CTLs	–
H-VLLGVVFGV-OH [Her2/neu.665L2V9]	Peptide-specific CTL activity was maintained in some of the cultures, but no corresponding endogenous recognition was observed	strong peptide-specific CTL response was observed	–
RWGLLLAL [RWGLLLAL]	–	–	IC50 [7]: 480 nM
TYLPTNASL	–	–	IC50 [7]: 316 nM

Source: patent publication US20040121946A9, “Inducing cellular immune responses to her2/neu using peptide and nucleic acid compositions” (priority 2002, published 2004)
